Source: patent US20080194585A1, “Fungicidal Pyrazine Derivatives” (priority 2005, published 2008)
Marks after values point to notes of the source that are not given here.

Key:
Phytophthora infestans = test: whole plant or invertebrate; type: in vivo; details: 100 = 100% disease control
[1] = test system: Puccinia recondita f. sp. tritici; test: Test K: wheat leaf rust, preventive spray on wheat seedlings; details: 40 ppm (marked *); 100 = 100% disease control, 0 = no control
Pythium aphanidermatum = test: Test A: bluegrass pythium blight, preventive spray on bluegrass seedlings; details: 40 ppm (marked *); 100 = 100% disease control, 0 = no control
[2] = test system: Colletotrichum orbiculare; test: Test B: cucumber Colletotrichum anthracnose, preventive spray on cucumber seedlings; details: 40 ppm (marked *); 100 = 100% disease control, 0 = no control
fusarium graminearium = test: Test I: wheat head scab, preventive spray on wheat seedlings; details: 100 = 100% disease control
Procedure: (the causal agent of wheat head scab) and incubated in a saturated atmosphere at 20° C. for 72 h, and then moved to a growth chamber at 22° C. for 5 days, after which disease ratings were made.

Septoria tritici = test: Test J: wheat leaf blotch, preventive spray on wheat seedlings; type: in vivo; details: 40 ppm (marked *); 100 = 100% disease control, 0 = no control
Text: A dash (-) indicates no test results.

Rhizoctonia oryzae = test: Test G: turf brown patch, preventive spray on creeping bent grass seedlings; details: 100 = 100% disease control
Procedure: (the causal agent of turf brown patch) and incubated in a saturated atmosphere at 27° C. for 24 h, and then moved to a growth chamber at 27° C. for 5 days, after which disease ratings were made.

Plasmopara viticola = test: Test D: grape downy mildew, spray after inoculation of grape seedlings; type: in vivo; details: 100 = 100% disease control
Text: Upon removal, disease ratings were made. […] A dash (-) indicates no test results.

[3] = test system: Erysiphe graminis f. sp. tritici; test: Test L: wheat powdery mildew, preventive spray on wheat seedlings; details: 40 ppm (marked *); 100 = 100% disease control, 0 = no control
Botrytis cinerea = test: Test E: tomato botrytis, preventive spray on tomato seedlings; details: 40 ppm (marked *); 100 = 100% disease control, 0 = no control
Septoria nodorum = test: Test H: wheat glum blotch, preventive spray on wheat seedlings; details: 40 ppm (marked *); 100 = 100% disease control, 0 = no control
Procedure: (the causal agent of wheat glum blotch) and incubated in a saturated atmosphere at 20° C. for 48 h, and then moved to a growth chamber at 22° C. for 5 days, after which disease ratings were made.

[4] = 40 ppm (marked *), 0 = no control
[5] = 200 ppm, 0 = no control relative to controls

Row | Structure (SMILES) | Test F disease control rating (Phytophthora infestans; [4]) | Test K disease control rating [1] | Test A disease control rating (Pythium aphanidermatum) | Test B disease control rating [2] | Test I disease control rating (fusarium graminearium; [4]) | Test J disease control rating (Septoria tritici) | Test G disease control rating (Rhizoctonia oryzae; [4]) | Test D disease control rating (Plasmopara viticola; [4]) | Test L disease control rating [3] | Test E disease control rating (Botrytis cinerea) | Test H disease control rating (Septoria nodorum) | Test D disease control rating (Plasmopara viticola; [5]) [%] | Test F disease control rating (Phytophthora infestans; [5]) [%] | Test I disease control rating (fusarium graminearium; [5]) [%] | Test G disease control rating (Rhizoctonia oryzae; [5]) [%]
1 | Cc1ccn(-c2nc(Cl)c(-c3c(F)cc(F)cc3F)n(-c3cccc(Cl)c3)c2=O)n1 [compound 374] | 0* % | 100* % | 0* % | 100* % | 0* % | 100* % | 78* % | 0* % | 100* % | 99* % | 100* % |  |  |  | 
2 | O=c1c(-n2cccn2)nc(Cl)c(-c2c(F)cc(F)cc2F)n1-c1ccccc1Cl [compound 375] | 0* % | 100* % | 0* % | 100* % | 80* % | 100* % | 95* % | 0* % | 100* % | 99* % | 100* % |  |  |  | 
3 | Cc1ccn(-c2nc(Cl)c(-c3c(F)cc(F)cc3F)n(-c3ccccc3Cl)c2=O)n1 [compound 376] | 0* % | 100* % | 0* % | 100* % | 0* % | 100* % | 98* % |  | 100* % | 99* % | 100* % | 40 |  |  | 
4 | O=c1c(-n2cccn2)nc(Cl)c(-c2c(F)cc(F)cc2F)n1Cc1ccc(Br)cc1 [compound 377] |  | 98* % | 0* % | 31* % |  | 100* % | 0* % | 0* % | 94* % | 99* % | 0* % |  | 0 | 0 | 
5 | Cc1cccc(-n2c(-c3c(F)cccc3F)c(Cl)nc(-n3cccn3)c2=O)c1C [compound 378] | 0* % | 98* % | 0* % | 0* % | 0* % | 100* % | 51* % | 0* % | 91* % | 98* % | 98* % |  |  |  | 
6 | Cc1ccn(-c2nc(Cl)c(-c3c(F)cccc3F)n(-c3cccc(C)c3C)c2=O)n1 [compound 379] | 0* % | 95* % | 0* % | 0* % | 0* % | 100* % | 0* % | 0* % | 40* % | 98* % | 90* % |  |  |  | 
7 | O=c1c(-n2cccn2)nc(Cl)c(-c2c(F)cccc2F)n1-c1cccc(F)c1F [compound 380] | 0* % | 100* % | 0* % | 96* % | 60* % | 99* % |  | 0* % | 99* % | 99* % | 99* % |  |  |  | 60
